From ChEMBL document CHEMBL4627367, “Structure-based design and synthesis of novel furan-diketopiperazine-type derivatives as potent microtubule inhibitors for treating cancer” (Bioorg Med Chem, 2020) come the findings set out here.

For one test, the system named is NCI-H460. Nature of the test: Cytotoxicity against human NCI-H460 cells assessed as reduction in cell viability after 72 hrs by MTT assay. It is filed as functional, cell-based. Conditions: NCI-H460, 72 h.
The subject of another test is HT-29. As to the kind of experiment: Cytotoxicity against human HT-29 cells assessed as reduction in cell viability after 72 hrs by MTT assay. The test is classed as functional, cell-based. Conditions: HT-29, 72 h. (In general: Formazan colour is commonly taken as a measure of viable cells.)
Test [1] has as its target T1, Tubulin (Homo sapiens) (UniProt P68371+Q9H4B7+P0DPH7+P68366+Q13509+Q71U36+P04350+Q3ZCM7+P07437+P68363+Q9BQE3+Q6PEY2+Q13885+Q9BVA1+Q9BUF5). As to the kind of experiment: Inhibition of tubulin in human NCI-H460 cells assessed as inhibition of microtubule polymerization at 10 nM after 24 hrs by immunofluorescence assay. It is filed as cell-based.
Another test relates to BXPC-3. Nature of the test: Cytotoxicity against human BxPC3 cells assessed as reduction in cell viability incubated for 72 hrs by MTT assay. The test is classed as functional, cell-based. Conditions: BXPC-3, 72 h.
The target in test [2] is T1, Tubulin (Homo sapiens). Nature of the test: Inhibition of tubulin in human NCI-H460 cells assessed as inhibition of microtubule polymerization at 2 nM after 24 hrs by immunofluorescence assay. It is filed as cell-based.

Each structure is given as a SMILES string. Activity calls are given as the source filed them. The calls are words filed in the database; no cut-off is given here.

For the compound `O=c1[nH]/c(=C\c2ccc([N+](=O)[O-])o2)c(=O)[nH]/c1=C\c1cccc(Oc2ccc(F)cc2)c1`, the IC50 with NCI-H460 was > 1000 nM.
The same measure, in the same setting: the result for `O=c1[nH]/c(=C\c2nc3ccccc3[nH]2)c(=O)[nH]/c1=C\c1cccc(Oc2ccc(F)cc2)c1` reads > 1000 nM; that for `O=c1[nH]/c(=C\c2ncc[nH]2)c(=O)[nH]/c1=C\c1cccc(Oc2ccc(F)cc2)c1`, > 1000 nM.
As to `CC(C)(C)c1[nH]cnc1/C=c1\[nH]c(=O)/c(=C/c2ccccc2)[nH]c1=O` [PLINABULIN], the values for the IC50 in the test on HT-29 and with BXPC-3 were 6.6 nM and 5.8 nM, respectively. Also, the inhibition result on Tubulin (Homo sapiens) [1] is “Active”.
As to `COCc1ccc(/C=c2\[nH]c(=O)/c(=C/c3cccc(C(=O)c4ccc(F)cc4)c3)[nH]c2=O)o1`, the concentration for half-maximal inhibition (IC50) with HT-29 turned out to be 2.2 nM; in the test with NCI-H460 it was 2.9 nM; with BXPC-3, 2 nM. Further, the inhibition result on Tubulin (Homo sapiens) [1] is “Active”.
For `Cc1[nH]cnc1/C=c1\[nH]c(=O)/c(=C/c2cccc(Oc3ccc(F)cc3)c2)[nH]c1=O`, the IC50 in the test on NCI-H460 is 47.6 nM.
On the same count and under the same terms, the result for `O=c1[nH]/c(=C\c2ccc(CO)o2)c(=O)[nH]/c1=C\c1cccc(Oc2ccc(F)cc2)c1` reads 41.5 nM; that for `O=c1[nH]/c(=C\c2cccc(Oc3ccc(F)cc3)c2)c(=O)[nH]/c1=C\c1cccnc1`, > 1000 nM; that for `O=c1[nH]/c(=C\c2ccc(Br)o2)c(=O)[nH]/c1=C\c1cccc(Oc2ccc(F)cc2)c1`, 361 nM.
Same read-out and setting: the figure for `O=c1[nH]/c(=C\C2CCCCC2)c(=O)[nH]/c1=C\c1cccc(Oc2ccc(F)cc2)c1` is > 1000 nM.
Take `O=C(c1ccc(F)cc1)c1cccc(/C=c2\[nH]c(=O)/c(=C/c3c[nH]cn3)[nH]c2=O)c1`: the IC50 in the test on HT-29 was 5.1 nM; in the test with NCI-H460, 278 nM; with BXPC-3, 4.3 nM.
With `O=c1[nH]/c(=C\c2c[nH]cn2)c(=O)[nH]/c1=C\c1cccc(Oc2ccc(F)cc2)c1`, the 50% inhibitory concentration (IC50) in the test with NCI-H460 was 478 nM.
As to `CC(C)(C)c1[nH]cnc1/C=c1\[nH]c(=O)/c(=C/c2cccc(Oc3ccc(F)cc3)c2)[nH]c1=O`, the IC50 in the test with HT-29 was determined as 2.1 nM; with BXPC-3, 3.2 nM. Also, the inhibition result on Tubulin (Homo sapiens) [1] was “Active”.
Turning to `CC(C)c1[nH]cnc1/C=c1\[nH]c(=O)/c(=C/c2cccc(C(=O)c3ccc(F)cc3)c2)[nH]c1=O`, the concentration for half-maximal inhibition (IC50) was determined as 0.8 nM with HT-29, 3.2 nM in the test with NCI-H460 and 0.6 nM in the test on BXPC-3. Further, the inhibition entry at Tubulin (Homo sapiens) [1] was “Active”.
Turning to `Cc1ccc(/C=c2\[nH]c(=O)/c(=C/c3cccc(C(=O)c4ccc(F)cc4)c3)[nH]c2=O)o1`, the IC50 with HT-29 was 3.3 nM; with NCI-H460 it was 5.3 nM; in the test with BXPC-3 it was 3.7 nM.
For the compound `Cc1ccc(/C=c2\[nH]c(=O)/c(=C/c3cccc(Oc4ccc(F)cc4)c3)[nH]c2=O)o1`, the IC50 in the test with NCI-H460 turned out to be 30 nM.
In the case of `O=c1[nH]/c(=C\c2ccccn2)c(=O)[nH]/c1=C\c1cccc(Oc2ccc(F)cc2)c1`, the IC50 in the test with NCI-H460 stood at 49.1 nM.
As to `COCc1ccc(/C=c2\[nH]c(=O)/c(=C/c3cccc(Oc4ccc(F)cc4)c3)[nH]c2=O)o1`, the IC50 was 7 nM in the test with HT-29, 14 nM in the test on NCI-H460 and 6.6 nM in the test with BXPC-3. Moreover, the inhibition entry on Tubulin (Homo sapiens) [1] is “Active”.
For the compound `CC(C)(C)c1[nH]cnc1/C=c1\[nH]c(=O)/c(=C/c2cccc(C(=O)c3ccc(F)cc3)c2)[nH]c1=O`, the IC50 with HT-29 and with BXPC-3 was 0.6 nM in each case. Moreover, on Tubulin (Homo sapiens) [2], the inhibition entry was “Active”.
On to `O=c1[nH]/c(=C\c2cccs2)c(=O)[nH]/c1=C\c1cccc(Oc2ccc(F)cc2)c1`, for which the IC50 in the test on NCI-H460 was > 1000 nM.
For `O=C(c1ccc(F)cc1)c1cccc(/C=c2\[nH]c(=O)/c(=C/c3nc[nH]c3C3CC3)[nH]c2=O)c1`, the values for the half-inhibitory concentration (IC50) with HT-29, in the test on NCI-H460 and with BXPC-3 were 1.4 nM, 2.8 nM and 1.4 nM, respectively.
Consider `O=c1[nH]/c(=C\c2ccco2)c(=O)[nH]/c1=C\c1cccc(Oc2ccc(F)cc2)c1`, for which the IC50 in the test with NCI-H460 came out at 154 nM.
Still for that read-out and setting: the figure for `O=c1[nH]/c(=C\c2ccc(Cl)o2)c(=O)[nH]/c1=C\c1cccc(Oc2ccc(F)cc2)c1` is 180 nM.
As to `CC(C)c1[nH]cnc1/C=c1\[nH]c(=O)/c(=C/c2cccc(Oc3ccc(F)cc3)c2)[nH]c1=O`, the IC50 in the test on HT-29 turned out to be 3.7 nM; in the test with NCI-H460 it was 8.8 nM; with BXPC-3, 3.4 nM. The inhibition result on Tubulin (Homo sapiens) [1] is “Active”.
On to `O=c1[nH]/c(=C\c2cc3ccccc3o2)c(=O)[nH]/c1=C\c1cccc(Oc2ccc(F)cc2)c1`, for which the IC50 in the test on NCI-H460 worked out at 347 nM.
The same measure, in the same setting: the figure for `O=c1[nH]/c(=C\c2cccc(Oc3ccc(F)cc3)c2)c(=O)[nH]/c1=C\c1ccccc1` is 389 nM; for `Cc1[nH]cnc1/C=c1\[nH]c(=O)/c(=C/c2cccc(C(=O)c3ccc(F)cc3)c2)[nH]c1=O` it is 15.9 nM.
Regarding `O=c1[nH]/c(=C\c2nc[nH]c2C2CC2)c(=O)[nH]/c1=C\c1cccc(Oc2ccc(F)cc2)c1`, the IC50 in the test with HT-29 is 7.4 nM; in the test on NCI-H460, 15.2 nM; in the test with BXPC-3, 9.4 nM.

As a reminder, the IC50 is the concentration at which inhibition is half-maximal.
